Results from PMC3743849, “A Yeast-Based Chemical Screen Identifies a PDE Inhibitor That Elevates Steroidogenesis in Mouse Leydig Cells via PDE8 and PDE4 Inhibition” (PLoS ONE, 2013).

Columns and labels:
[1] = tested on: PDE8 enzymes; design: method as in PMID 9671792, PMID 9784418; conditions: ref [6], [11]; cited from earlier work
[2] = molecular target: T1, recombinant human PDE8A (Homo sapiens, UniProt O60658); assay: In vitro PDE assay (Ba(OH)2 precipitation), PDE8A; type: biochemical; conditions: for IC50: 10 nM cAMP substrate
T1 construct: purchased BPS Bioscience Inc
T1 sequence (O60658 whole entry): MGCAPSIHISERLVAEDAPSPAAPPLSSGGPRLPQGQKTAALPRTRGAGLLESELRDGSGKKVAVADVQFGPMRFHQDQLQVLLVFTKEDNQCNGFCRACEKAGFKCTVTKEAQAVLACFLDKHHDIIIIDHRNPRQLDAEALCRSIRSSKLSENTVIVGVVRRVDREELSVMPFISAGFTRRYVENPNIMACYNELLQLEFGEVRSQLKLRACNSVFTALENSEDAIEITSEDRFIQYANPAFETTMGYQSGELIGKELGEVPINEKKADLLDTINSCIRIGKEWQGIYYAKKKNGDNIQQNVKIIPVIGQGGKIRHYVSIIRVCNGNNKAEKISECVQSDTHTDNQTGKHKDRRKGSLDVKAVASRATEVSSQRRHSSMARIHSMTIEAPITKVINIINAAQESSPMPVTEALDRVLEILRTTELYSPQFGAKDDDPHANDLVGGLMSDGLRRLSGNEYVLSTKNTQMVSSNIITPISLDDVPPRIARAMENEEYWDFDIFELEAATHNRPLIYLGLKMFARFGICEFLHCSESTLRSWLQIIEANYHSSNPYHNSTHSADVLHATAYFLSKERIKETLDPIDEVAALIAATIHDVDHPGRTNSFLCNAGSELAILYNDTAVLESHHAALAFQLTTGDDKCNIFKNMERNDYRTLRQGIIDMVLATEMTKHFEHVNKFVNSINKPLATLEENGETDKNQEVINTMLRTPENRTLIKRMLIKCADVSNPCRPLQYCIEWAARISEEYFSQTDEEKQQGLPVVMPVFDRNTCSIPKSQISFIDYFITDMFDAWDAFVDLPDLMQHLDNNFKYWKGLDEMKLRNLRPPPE
Description: (§1) In vitro PDE assays were performed as previously described, using the Ba(OH)2 precipitation assay, with recombinant human PDE1C, PDE3B, PDE5A1, PDE8A, PDE9A2, PDE10A1, PDE11A4 (BPS Bioscience Inc.), rat PDE2A (BPS Bioscience Inc.), human PDE7A (BIOMOL International), and human PDE4A10 enzymes (gift from Dr. Hengming Ke). Substrate concentrations were 120 nM cGMP (PDE1C), 1 µM cGMP (PDE2A), 30 nM cGMP (PDE3B), 50 nM cAMP (PDE4A), 520 nM cGMP (PDE5A), 10 nM cAMP (PDE7A), 10 nM cAMP (PDE8A), 70 nM cGMP (PDE9A), 40 nM cAMP (PDE10A), and 120 nM cGMP (PDE11A). Reactions were performed in 50 mM Tris·HCl (pH 8.5), 10 mM MgCl2 (for all enzymes except PDE8) or 4 mM MnCl2 (for PDE8A), and 5 mM dithiothreitol, and proceeded for 30 min for PDE8A, 6 min for PDE10A and 15 min for other PDEs, so that reactions were linear with time. Reactions were stopped with 200 µL 0.2 M ZnSO4, after which 5′-AMP was precipitated with 200 µL 0.25 N Ba(OH)2 by centrifugation for 15 min at 14000 rpm. The remaining radioactivity in the supernatant was measured in 4 mL of scintillation fluid. The amount of hydrolysis was generally limited to 30 percent conversion and IC50 values were calculated as the means of three independent experiments. Substrate concentrations were ≤0.1*Km for each enzyme, thus IC50 values approximate the Ki values.

[3] = molecular target: T2, human PDE4A10 (Homo sapiens, UniProt P27815); assay: In vitro PDE assay (Ba(OH)2 precipitation), PDE4A; type: biochemical; conditions: 50 nM cAMP substrate
T2 construct: gift from Dr. Hengming Ke

[4] = molecular target: T3, human PDE7A (Homo sapiens, UniProt Q13946); assay: In vitro PDE assay (Ba(OH)2 precipitation), PDE7A; type: biochemical; conditions: for IC50: 10 nM cAMP substrate, mean ± SD of three independent experiments
T3 construct: purchased BIOMOL International
T3 sequence (Q13946 whole entry): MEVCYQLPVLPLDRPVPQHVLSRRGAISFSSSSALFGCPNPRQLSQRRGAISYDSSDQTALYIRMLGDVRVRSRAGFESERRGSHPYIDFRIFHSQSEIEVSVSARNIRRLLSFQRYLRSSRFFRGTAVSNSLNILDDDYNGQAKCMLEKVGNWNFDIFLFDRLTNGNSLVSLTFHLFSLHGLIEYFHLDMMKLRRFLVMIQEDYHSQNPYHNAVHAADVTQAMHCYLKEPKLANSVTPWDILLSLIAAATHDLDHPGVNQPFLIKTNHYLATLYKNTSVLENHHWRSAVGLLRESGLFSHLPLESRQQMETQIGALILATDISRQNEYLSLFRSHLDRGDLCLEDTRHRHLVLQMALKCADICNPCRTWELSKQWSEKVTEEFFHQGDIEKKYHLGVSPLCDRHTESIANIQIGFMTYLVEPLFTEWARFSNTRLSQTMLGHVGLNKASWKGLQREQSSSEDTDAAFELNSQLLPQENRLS

[5] = molecular target: T4, recombinant human PDE1C (Homo sapiens, UniProt Q14123); assay: In vitro PDE assay (Ba(OH)2 precipitation), PDE1C; type: biochemical; conditions: 120 nM cGMP substrate; mean ± SD of three independent experiments
T4 construct: purchased BPS Bioscience Inc
T4 sequence (Q14123 whole entry): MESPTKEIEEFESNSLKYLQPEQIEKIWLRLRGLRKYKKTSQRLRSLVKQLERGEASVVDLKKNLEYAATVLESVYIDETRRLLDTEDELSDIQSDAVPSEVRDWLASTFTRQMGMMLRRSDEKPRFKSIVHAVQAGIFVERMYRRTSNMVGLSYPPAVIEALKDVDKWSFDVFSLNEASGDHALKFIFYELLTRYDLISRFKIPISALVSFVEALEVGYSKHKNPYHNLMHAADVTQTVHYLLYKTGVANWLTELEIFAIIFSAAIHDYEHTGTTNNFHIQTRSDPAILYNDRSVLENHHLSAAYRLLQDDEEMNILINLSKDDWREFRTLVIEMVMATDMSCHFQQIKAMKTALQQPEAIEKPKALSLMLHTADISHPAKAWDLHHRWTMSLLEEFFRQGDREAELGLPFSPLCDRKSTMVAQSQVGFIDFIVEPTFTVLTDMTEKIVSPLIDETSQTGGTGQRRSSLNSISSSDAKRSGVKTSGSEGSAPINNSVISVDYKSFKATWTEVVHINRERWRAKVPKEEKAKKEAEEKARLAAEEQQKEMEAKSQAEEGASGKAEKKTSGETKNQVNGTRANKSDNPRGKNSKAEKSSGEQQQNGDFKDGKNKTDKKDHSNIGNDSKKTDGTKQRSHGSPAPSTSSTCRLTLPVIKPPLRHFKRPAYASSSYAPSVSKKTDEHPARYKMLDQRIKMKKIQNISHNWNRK
Description: as §1

[6] = molecular target: T5, rat PDE2A (Rattus norvegicus, UniProt Q01062); assay: In vitro PDE assay (Ba(OH)2 precipitation), PDE2A; type: biochemical; conditions: 1 µM cGMP substrate; mean ± SD of three independent experiments
T5 construct: purchased BPS Bioscience Inc
T5 sequence (Q01062 1-928): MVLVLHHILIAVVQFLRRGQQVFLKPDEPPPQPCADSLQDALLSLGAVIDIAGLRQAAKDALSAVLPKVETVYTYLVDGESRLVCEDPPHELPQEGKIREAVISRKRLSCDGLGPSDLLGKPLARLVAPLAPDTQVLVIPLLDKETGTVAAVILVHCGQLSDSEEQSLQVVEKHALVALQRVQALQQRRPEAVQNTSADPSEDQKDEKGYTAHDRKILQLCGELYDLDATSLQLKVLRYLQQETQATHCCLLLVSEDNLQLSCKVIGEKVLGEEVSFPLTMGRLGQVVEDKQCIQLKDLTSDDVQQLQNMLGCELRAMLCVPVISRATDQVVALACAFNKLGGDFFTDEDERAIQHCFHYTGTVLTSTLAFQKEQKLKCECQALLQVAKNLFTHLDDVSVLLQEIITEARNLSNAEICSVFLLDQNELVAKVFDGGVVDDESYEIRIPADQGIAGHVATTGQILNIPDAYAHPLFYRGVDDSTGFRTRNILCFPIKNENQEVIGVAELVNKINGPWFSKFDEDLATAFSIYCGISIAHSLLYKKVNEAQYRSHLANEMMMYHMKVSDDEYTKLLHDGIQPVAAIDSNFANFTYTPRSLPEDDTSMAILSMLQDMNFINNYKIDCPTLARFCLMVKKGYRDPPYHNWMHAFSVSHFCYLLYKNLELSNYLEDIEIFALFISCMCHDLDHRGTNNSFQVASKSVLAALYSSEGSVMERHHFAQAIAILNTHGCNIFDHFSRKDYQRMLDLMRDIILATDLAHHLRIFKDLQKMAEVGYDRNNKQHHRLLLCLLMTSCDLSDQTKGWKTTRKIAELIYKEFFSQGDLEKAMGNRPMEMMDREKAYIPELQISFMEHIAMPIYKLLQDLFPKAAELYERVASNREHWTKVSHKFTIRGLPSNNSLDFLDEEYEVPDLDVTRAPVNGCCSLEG
Description: as §1

[7] = molecular target: T6, recombinant human PDE3B (Homo sapiens, UniProt Q13370); assay: In vitro PDE assay (Ba(OH)2 precipitation), PDE3B; type: biochemical; conditions: 30 nM cGMP substrate; three independent experiments
T6 construct: purchased BPS Bioscience Inc
Description: as §1

[8] = molecular target: T7, recombinant human PDE10A1 (Homo sapiens, UniProt Q9Y233); assay: In vitro PDE assay (Ba(OH)2 precipitation), PDE10A; type: biochemical; conditions: 40 nM cAMP substrate; mean ± SD of three independent experiments
T7 construct: purchased BPS Bioscience Inc
T7 sequence (Q9Y233 1-779 isoform Q9Y233-1): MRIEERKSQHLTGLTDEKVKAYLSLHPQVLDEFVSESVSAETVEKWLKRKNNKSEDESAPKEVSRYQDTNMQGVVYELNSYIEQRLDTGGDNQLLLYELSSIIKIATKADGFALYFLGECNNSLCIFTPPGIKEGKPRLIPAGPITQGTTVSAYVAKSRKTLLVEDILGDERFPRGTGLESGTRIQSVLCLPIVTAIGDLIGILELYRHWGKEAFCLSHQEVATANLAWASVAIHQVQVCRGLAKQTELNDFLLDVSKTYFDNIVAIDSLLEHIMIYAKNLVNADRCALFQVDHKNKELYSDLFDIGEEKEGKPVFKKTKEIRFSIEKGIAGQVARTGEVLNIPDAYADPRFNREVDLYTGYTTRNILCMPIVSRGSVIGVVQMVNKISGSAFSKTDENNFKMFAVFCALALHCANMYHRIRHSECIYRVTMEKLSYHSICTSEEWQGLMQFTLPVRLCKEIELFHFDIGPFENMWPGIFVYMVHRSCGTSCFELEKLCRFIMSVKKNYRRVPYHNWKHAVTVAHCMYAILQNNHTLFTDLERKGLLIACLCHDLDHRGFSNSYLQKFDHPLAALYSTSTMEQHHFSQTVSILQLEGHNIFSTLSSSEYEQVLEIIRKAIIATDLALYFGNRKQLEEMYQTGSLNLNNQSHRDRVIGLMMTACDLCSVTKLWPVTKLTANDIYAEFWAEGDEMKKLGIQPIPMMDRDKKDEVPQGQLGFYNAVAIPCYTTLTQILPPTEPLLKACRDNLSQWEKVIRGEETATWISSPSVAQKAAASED
Description: as §1

[9] = molecular target: T8, recombinant human PDE11A4 (Homo sapiens, UniProt Q9HCR9); assay: In vitro PDE assay (Ba(OH)2 precipitation), PDE11A; type: biochemical; conditions: 120 nM cGMP substrate; mean ± SD of three independent experiments
T8 construct: purchased BPS Bioscience Inc
T8 sequence (Q9HCR9 whole entry): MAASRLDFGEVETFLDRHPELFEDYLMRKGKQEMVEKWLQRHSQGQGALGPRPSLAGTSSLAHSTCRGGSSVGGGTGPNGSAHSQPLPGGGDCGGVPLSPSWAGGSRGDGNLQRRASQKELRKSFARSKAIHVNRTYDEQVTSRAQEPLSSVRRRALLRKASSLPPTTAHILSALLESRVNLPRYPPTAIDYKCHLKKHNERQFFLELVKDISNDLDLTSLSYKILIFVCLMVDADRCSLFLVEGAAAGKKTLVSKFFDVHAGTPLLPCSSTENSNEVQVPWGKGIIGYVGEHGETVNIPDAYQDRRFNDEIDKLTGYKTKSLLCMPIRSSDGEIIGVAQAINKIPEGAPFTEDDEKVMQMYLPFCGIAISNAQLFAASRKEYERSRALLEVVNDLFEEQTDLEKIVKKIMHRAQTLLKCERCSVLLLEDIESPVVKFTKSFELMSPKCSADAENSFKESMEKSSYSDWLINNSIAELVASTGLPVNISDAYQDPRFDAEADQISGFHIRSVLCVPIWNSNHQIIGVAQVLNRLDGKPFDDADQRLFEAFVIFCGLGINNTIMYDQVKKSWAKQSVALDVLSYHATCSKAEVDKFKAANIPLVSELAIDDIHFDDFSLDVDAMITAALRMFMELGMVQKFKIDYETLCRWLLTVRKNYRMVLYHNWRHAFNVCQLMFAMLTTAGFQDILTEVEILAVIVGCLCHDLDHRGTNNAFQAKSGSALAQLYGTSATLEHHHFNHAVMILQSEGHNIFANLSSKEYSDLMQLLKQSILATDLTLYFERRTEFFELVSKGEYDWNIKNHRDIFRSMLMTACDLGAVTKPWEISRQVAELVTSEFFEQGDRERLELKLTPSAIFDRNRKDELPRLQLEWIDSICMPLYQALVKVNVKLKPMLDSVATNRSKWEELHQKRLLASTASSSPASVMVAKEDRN
Description: as §1

[10] = molecular target: T9, recombinant human PDE5A1 (Homo sapiens, UniProt O76074); assay: In vitro PDE assay (Ba(OH)2 precipitation), PDE5A; type: biochemical; conditions: 520 nM cGMP substrate; mean ± SD of three independent experiments
T9 construct: purchased BPS Bioscience Inc
Description: as §1

[11] = molecular target: T10, recombinant human PDE9A2 (Homo sapiens, UniProt O76083); assay: In vitro PDE assay (Ba(OH)2 precipitation), PDE9A; type: biochemical; conditions: 70 nM cGMP substrate; three independent experiments
T10 construct: purchased BPS Bioscience Inc
T10 sequence (O76083 1-533 isoform O76083-2): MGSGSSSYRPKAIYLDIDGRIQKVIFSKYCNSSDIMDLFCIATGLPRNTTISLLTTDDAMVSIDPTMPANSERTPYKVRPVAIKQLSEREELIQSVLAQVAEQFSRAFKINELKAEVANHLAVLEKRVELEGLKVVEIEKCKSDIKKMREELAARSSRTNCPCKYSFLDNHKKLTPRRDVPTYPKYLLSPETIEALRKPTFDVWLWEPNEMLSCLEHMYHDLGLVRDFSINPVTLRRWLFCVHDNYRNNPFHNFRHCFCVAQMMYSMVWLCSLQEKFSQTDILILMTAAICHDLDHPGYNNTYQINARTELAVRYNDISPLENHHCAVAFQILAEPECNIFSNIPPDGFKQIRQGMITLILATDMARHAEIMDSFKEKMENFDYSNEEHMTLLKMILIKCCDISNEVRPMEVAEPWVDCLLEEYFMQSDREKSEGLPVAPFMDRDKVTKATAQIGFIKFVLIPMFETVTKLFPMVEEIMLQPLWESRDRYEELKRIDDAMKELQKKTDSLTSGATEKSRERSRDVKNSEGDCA
Description: as §1

[12] = tested on: MA-10 Leydig tumor cells; assay: Progesterone release from MA-10 Leydig tumor cells; type: cell-based, mouse; conditions: 20 µM compound; 2 h
Description: MA-10 Leydig tumor cells were maintained in RPMI medium supplemented with 10% horse serum and seeded in 24 well plates to achieve 60–80% confluency after 2–3 days. Cells were washed with serum free medium twice and incubated in a 5% CO2 incubator at 37°C for 2 h. Following incubation, cells were treated with BC8-15, BC8-15A, or BC8-15C by replacing the media with 300 µL RPMI medium containing test compounds or vehicle. Media were collected after incubation for 2 h at 37°C. Progesterone levels in the media were measured using a progesterone ELISA kit (Neogen, Lexington, KY). Protein levels were determined by lysing cells in lysis buffer (50 mM Tris HCl (pH 7.5), 150 mM NaCl, 1% Triton X-100, 2 mM PMSF (supplemented with a Complete Protease Inhibitor Tablet (Roche, Nutley, NJ)) and measuring the protein concentration using a BCA protein assay kit (Pierce, Rockford, IL).

[13] = tested on: primary Leydig cells from wild type mice; assay: Testosterone production from primary Leydig cells, wild type mice; type: cell-based, mouse; conditions: 3 h, rolipram 20 µM, BC8-15 10 µM and 40 µM
Description: (§2) Leydig cells were isolated from testes of wild type and PDE8A^−/−/B^−/− knock-out adult mice as previously described. Digested tissue from decapsulated mouse testis was enriched for interstitial cells by filtration as previously described. Collected cells were resuspended in DMEM/F-12 medium supplemented with 1 mg/mL BSA and 150 µL aliquots were dispensed into 48-well plates. After permitting cells to recover at 37°C for 3 h, 30 µL of media with test compounds or vehicle was added to replicate wells. Media were collected after incubation for 3 h and stored at −20°C. Testosterone released into the media was measured by a testosterone ELISA kit (Neogen, Lexington, KY).

[14] = tested on: primary Leydig cells from PDE8A−/−/B−/− knock-out mice; assay: Testosterone production from primary Leydig cells, PDE8A-/-/B-/- knock-out mice; type: cell-based, mouse; conditions: 3 h, rolipram 20 µM, BC8-15 10 µM and 40 µM
Description: as §2

[15] = tested on: T11, murine PDE8A1; assay: Yeast-based 5FOA growth HTS with PDE8A-expressing S. pombe strain CHP1204; type: cell-based; conditions: Known Bioactives Collection screen
T11 construct: expressed in transfected cells; host or cells: Schizosaccharomyces pombe strain CHP1204 (PDE8A1 integrated at the cgs2 locus)
Description: Cyclic nucleotide-dependent growth in 5FOA medium was monitored in 50 µL cultures in 384-well microtiter plates (untreated, flat clear bottom). Cells were inoculated at an initial cell density of 0.5–2×10^5 cells/mL. Previously described optimized pre-growth conditions for each strain were used to repress the fbp1-ura4^+ reporter prior to inoculation into 5FOA medium, as cells that are already expressing the Ura4 enzyme would be 5FOA-sensitive even upon exposure to a PDE inhibitor [18]. Following a 48-h incubation at 30°C, plates were vortexed and optical densities (600 nm) were measured. The experiments with the PDE8A-expressing strain (CHP1204) were performed with 0.5 mM cAMP in the pre-growth medium and 40 µM cAMP in the 5FOA medium. […]
The suitability and quality of the assay conditions for high throughput screening was evaluated by a Z factor test as previously described, [23], using DMSO (0.2%) as a negative control, and either 5 mM cAMP, 10 µM BC69, or 20 µM BC69 as positive controls. […] After 48 h growth at 30°C, the optical density (OD600) of each well was measured using a plate reader. Composite Z scores were calculated for each compound by scaling the vector [Zscore_A, Zscore_B] by the cosine correlation with the diagonal (i.e. identical Z-scores in both replicates).

[16] = mean ± SD of three independent experiments

Structure (SMILES)	IC50 [4] [µM]	IC50 [5] [µM]	IC50 [6] [µM]	IC50 [7] [µM]	IC50 [8] [µM]	IC50 [9] [µM]	IC50 [10] [µM]	IC50 [11] [µM]	increase in progesterone release compared to untreated cells [12]	other results
CC(C)Cn1c(=O)n(C)c(=O)c2[nH]cnc21 [3-isobutyl-1-methylxanthine (IBMX), 3-isobutyl-1-methylxanthine]										sensitivity of PDE8 enzymes to inhibitor [1]: insensitive
Cc1nnc2c3ccccc3nc(Nc3cccc(C(=O)O)c3)n12 [BC8-15A]	8.88 ± 3.9	> 20	5.2 ± 2	> 20	2.3 ± 0.7	1	> 20	> 20	five-fold	IC50 [2, 16]: 1.59 ± 0.3 µM; IC50 [3, 16]: 1.59 ± 0.1 µM
CCc1nnc2c3ccccc3nc(Nc3cccc(C)c3)n12 [BC8-15C]	14.2 ± 6.4	> 20	> 20	> 20	1.5 ± 1.2	0.08 ± 0.05	> 20	> 20	little or no effect	IC50 [2, 16]: 59.3 ± 14.2 µM
CCc1nnc2c3ccccc3nc(Nc3cccc(C(=O)O)c3)n12 [BC8-15]	6.46	8.4 ± 3	15.7 ± 2.7	> 20	1.6 ± 0.2	1.2 ± 0.7	16.7 ± 2.3	> 20	> 10 fold	IC50 [2]: 0.28 µM; IC50 [3]: 0.22 µM; fold less activity against PDE7A (vs PDE8A/PDE4A) ([4]; ratio of IC50 values): 23 fold; testosterone release [13]: dose-dependent elevation; increase in testosterone production [14]: two-fold increase
OCCN(CCO)c1nc(N2CCCCC2)c2nc(N(CCO)CCO)nc(N3CCCCC3)c2n1 [dipyridamole]										activity in PDE8A yeast growth screen [15]: no activity; sensitivity of PDE8 enzymes to inhibitor [1]: only weakly inhibited
C[C@]12CC[C@H](O)C[C@@H]1CC[C@@H]1[C@@H]2CC[C@]2(C)C(=O)CC[C@@H]12 [epiandrosterone, reference compound]										inhibition at 32 µM ([2]; 32 µM compound, data not shown): 17%; composite Z score, 5FOA-resistant growth of PDE8A1-expressing strain ([15]; 40 µM cAMP in 5FOA medium, 48 h): 12.9
COc1ccc(C2CNC(=O)C2)cc1OC1CCCC1 (stereo not shown) [rolipram, reference compound]									little or no effect	testosterone release [13]: no response; increase in testosterone production [14]: two-fold increase
